Test results from ChEMBL document CHEMBL1147193, “New 5-substituted thiazolo[3,2-b][1,2,4]triazol-6-ones: synthesis and anticancer evaluation” (2007).

Key:
Type in all cases: functional
NCI-H460 = assay: Anticancer activity against human NCI-H460 cells assessed as growth of cells at 100 uM relative to untreated cells
MCF7 = assay: Anticancer activity against human MCF7 cells assessed as growth of cells at 100 uM relative to untreated cells
SF-268 = assay: Anticancer activity against human SF268 cells assessed as growth of cells at 100 uM relative to untreated cells

O=c1/c(=C/C=C\c2ccccc2)sc2ncnn12
Activity (NCI-H460): 95% | Activity (MCF7): 138% | Activity (SF-268): 128%
